Source: PubChem BioAssay AID1963827 (Molecular Pharmacology Branch, DTP, NCI, 2024)
Where “and” joins values, the source holds several entries; their conditions need not be identical. Equal values may be shown once.

Tested on: 994946-033-R-J1-PDC complex spheroid viability
Assay: Anticancer human tumor 994946-033-R-J1-PDC patient-derived melanoma cell line growth inhibition [POLQ]
Conditions: for viability, T/C: stronger effect = lower value
Description: Multicellular complex tumor spheroid response to Polymerase (POL) inhibitors (novobiocin, ART-558, RP6685) in combination with a variety of drugs and investigational agents in selected tumor cell lines
The POL inhibitors (novobiocin, ART-558, and RP6685) were evaluated both individually and in combination with standard of care and investigational anticancer small molecules within a complex spheroid model of solid tumors. . Complex spheroids include a stromal component modeled by human endothelial cells (HUVEC) and fibroblasts modeled by human mesenchymal stem cells (MSCs). The concentration ranges selected for each drug and investigational agent were based upon clinically achievable concentrations if the clinical Cmax of the agent was known.
Compounds. The drugs and investigational agents: novobiocin (NSC847541), ART-558 (NSC835418), RP-6685 (NSC848927), peposertib (NSC802822), ceralasertib (NSC780249), elimusertib (NSC800525), camonsertib (NSC841442), AZD-1390 (NSC803789), olaparib (NSC753686), talazoparib (NSC767125), rucaparib (NSC756644), sotorasib (NSC818433), MRTX-1133 (NSC836407), SN-38 (NSC673596), topotecan (NSC609699), epotoside (NSC141540), doxorubicin (NSC123127), gemcitabine (NSC613327), 5-fluorouracil (NSC19893), paclitaxel (NSC125973), vemurafenib (NSC761431), MSA-2 (NSC828583), SN-011 (NSC837082), adavosertib (NSC754352), prexasertib (NSC758257), carboplatin (NSC241240) and oxaliplatin (NSC266046), were obtained from the National Cancer Institute (NCI) Developmental Therapeutics Program Chemical Repository (21). The FDA-approved anticancer drug set is available from the Developmental Therapeutics Program at https://dtp.cancer.gov/organization/dscb/obtaining/. […] The stock solutions were prepared in dimethyl sulfoxide (DMSO, Sigma-Aldrich, St. Louis, MO, cat. D2650), except for the platinum compounds which were prepared in saline (Quality Biological, Gaithersburg, MD, cat. 114-055-101), at 800-fold the tested concentration and stored at -70 degrees C prior to their use. All drugs and investigational agents were tested over a range starting from a high concentration at or near the clinical Cmax and decreasing in half-log increments. If the clinical Cmax for an agent had not been determined, the highest concentration tested was 10 microM, except for SN-38, which was tested at a high concentration of 1 microM.
Cell Culture. All cells were maintained in an incubator at 37 degrees C and 5% CO2 with 95% humidity. The PDC lines were cultured according to standard operating procedures established by the NCI PDMR (https://pdmr.cancer.gov). Table 3 of the manuscript, lists the cell lines along with the number of the three cell types plated to form the mct-spheroids and media for tumor cell growth. After thawing, all PDC lines, except 997537-175-T-J1-PDC and 415267-285-R-J2-PDC, were cultured in Matrigel-coated flasks prepared with a working solution of 1X Ham's F-12 nutrient mix, without supplementation (Thermo Fisher Scientific, cat. 11765054), 100 U/mL penicillin-streptomycin (Thermo Fisher Scientific, cat. 15140122), and 2.5% Matrigel (Corning Inc., Corning, NY, cat. 354248) for the first three passages. The two PDC lines 997537-175-T-J1-PDC and 415267-285-R-J2-PDC were cultured on uncoated flasks. The 857933-349-R-J2-PDC line was cultured in 6C/Colon 1B media containing advanced DMEM/F-12 (Thermo Fisher Scientific, cat. 12634028), 10 mM HEPES (Thermo Fisher Scientific, cat. 15630080), 1X GlutaMAX supplement (Thermo Fisher Scientific, cat. 35050061), 0.1 mg/mL primocin (InvivoGen, San Diego, CA, cat. ant-pm-2), 10% defined fetal bovine serum, heat inactivated (HyClone Laboratories Inc., Logan, UT, cat. SH30070.03HI), 50% L-WRN conditioned media (ATCC, cat. CRL-3276), 1.25 mM N-Acetyl-L-cysteine (Sigma-Aldrich, cat. A9165), 10 mM nicotinamide (Sigma-Aldrich, cat. N0636), 1X B-27 supplement (Thermo Fisher Scientific, cat. 17504044), 1X N-2 supplement (Thermo Fisher Scientific, cat. […]
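Further: spheroids exposed to drugs for 7 days.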
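Wherever viability, T/C is given: 100% = DMSO vehicle treated spheroids.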

CCc1cc2c(N3CCc4c(cc(Cn5ccnc5)cc4-c4cn(C)nc4C(F)(F)F)C3=O)ccnc2c(OC)n1 + Nc1ccc(C#CCN(C(=O)Cc2ncc(C(F)(F)F)cc2C(F)(F)F)c2ccc(F)cc2)nn1
IC50 (curve of first compound, second compound 0.0316 µM): > 10 µM
IC50 (curve of first compound, second compound 0.1 µM): > 10 µM
IC50 (curve of first compound, second compound 0.316 µM): > 10 µM
IC50 (curve of first compound, second compound 1 µM): > 10 µM
IC50 (curve of first compound, second compound 3.16 µM): > 10 µM
IC50 (curve of first compound, second compound 10 µM): > 10 µM
viability, T/C (second compound 0.0316 µM, first compound 0.0316 µM): 51.5%
viability, T/C (second compound 0.0316 µM, first compound 0.1 µM): 79.4%
viability, T/C (second compound 0.0316 µM, first compound 0.316 µM): 82%
viability, T/C (second compound 0.0316 µM, first compound 1 µM): 88.2%
viability, T/C (second compound 0.0316 µM, first compound 3.16 µM): 79.6%
viability, T/C (second compound 0.0316 µM, first compound 10 µM): 79%
viability, T/C (second compound 0.1 µM, first compound 0.0316 µM): 101%
viability, T/C (second compound 0.1 µM, first compound 0.1 µM): 87.7%
viability, T/C (second compound 0.1 µM, first compound 0.316 µM): 88.6%
viability, T/C (second compound 0.1 µM, first compound 1 µM): 76.8%
viability, T/C (second compound 0.1 µM, first compound 3.16 µM): 73.8%
viability, T/C (second compound 0.1 µM, first compound 10 µM): 81.4%
viability, T/C (second compound 0.316 µM, first compound 0.0316 µM): 89.3%
viability, T/C (second compound 0.316 µM, first compound 0.1 µM): 97.6%
viability, T/C (second compound 0.316 µM, first compound 0.316 µM): 78.4%
viability, T/C (second compound 0.316 µM, first compound 1 µM): 70.6%
viability, T/C (second compound 0.316 µM, first compound 3.16 µM): 79.8%
viability, T/C (second compound 0.316 µM, first compound 10 µM): 63.9%
viability, T/C (second compound 1 µM, first compound 0.0316 µM): 98.9%
viability, T/C (second compound 1 µM, first compound 0.1 µM): 62.2%
viability, T/C (second compound 1 µM, first compound 0.316 µM): 85.1%
viability, T/C (second compound 1 µM, first compound 1 µM): 75%
viability, T/C (second compound 1 µM, first compound 3.16 µM): 86.7%
viability, T/C (second compound 1 µM, first compound 10 µM): 87.4%
viability, T/C (second compound 3.16 µM, first compound 0.0316 µM): 75.9%
viability, T/C (second compound 3.16 µM, first compound 0.1 µM): 78%
viability, T/C (second compound 3.16 µM, first compound 0.316 µM): 66.9%
viability, T/C (second compound 3.16 µM, first compound 1 µM): 79.4%
viability, T/C (second compound 3.16 µM, first compound 3.16 µM): 89.2%
viability, T/C (second compound 3.16 µM, first compound 10 µM): 66.7%
viability, T/C (second compound 10 µM, first compound 0.0316 µM): 101%
viability, T/C (second compound 10 µM, first compound 0.1 µM): 98.2%
viability, T/C (second compound 10 µM, first compound 0.316 µM): 102%
viability, T/C (second compound 10 µM, first compound 1 µM): 89.8%
viability, T/C (second compound 10 µM, first compound 3.16 µM): 80.8%
viability, T/C (second compound 10 µM, first compound 10 µM): 70.8%

CC1COCCN1c1cc(-c2ccnn2C)c2ccnc(-c3ccn[nH]3)c2n1 (configuration not stated)
viability, T/C (compound 0.0316 µM): 68% and 74.9% and 58.3%
viability, T/C (compound 0.1 µM): 37.9% and 28.1% (2×)
viability, T/C (compound 0.316 µM): 24.9% and 25.2% and 20.4%
viability, T/C (compound 1 µM): 17.2% and 25.2% and 29.2%
viability, T/C (compound 3.16 µM): 15.5% and 20.5% and 13.3%
viability, T/C (compound 10 µM): 10.3% and 16% and 14.4%
IC50 (curve of compound): 0.064 µM and 0.0587 µM and 0.0437 µM

O=C(c1cc(Cc2n[nH]c(=O)c3ccccc23)ccc1F)N1CCN(C(=O)C2CC2)CC1
viability, T/C (compound 0.0316 µM): 98.7% and 77.9% and 85.7%
viability, T/C (compound 0.1 µM): 94% and 103% and 89.2%
viability, T/C (compound 0.316 µM): 101% and 90.9% and 80.3%
viability, T/C (compound 1 µM): 91.5% and 88.8% and 54.5%
viability, T/C (compound 3.16 µM): 63.4% and 55.2% and 62.6%
viability, T/C (compound 10 µM): 32.4% and 33.3% and 36.9%
IC50 (curve of compound): 5.19 µM and 4.15 µM and 4.32 µM

C#Cc1c(F)ccc2cc(O)cc(-c3ncc4c(N5CC6CCC(C5)N6)nc(OCC56CCCN5CC(F)C6)nc4c3F)c12 (configuration not stated)
viability, T/C (compound 0.0316 µM): 78.6% and 88.4% and 92.6%
viability, T/C (compound 0.1 µM): 114% and 85.9% and 77.6%
viability, T/C (compound 0.316 µM): 100% and 90.5% and 92%
viability, T/C (compound 1 µM): 85.9% and 83.8% and 79.2%
viability, T/C (compound 3.16 µM): 77.8% and 81.5% and 90.7%
viability, T/C (compound 10 µM): 12.6% and 21.5% and 6.41%
IC50 (curve of compound): 5.08 µM and 5.79 µM and 5.34 µM

CCc1cc2c(N3CCc4c(cc(Cn5ccnc5)cc4-c4cn(C)nc4C(F)(F)F)C3=O)ccnc2c(OC)n1
viability, T/C (compound 0.0316 µM): 89.4% and 91.8% and 73.3%
viability, T/C (compound 0.1 µM): 85.4% and 86.5% and 82.3%
viability, T/C (compound 0.316 µM): 85.9% and 66.4% and 74.3%
viability, T/C (compound 1 µM): 88.4% and 84% and 76.2%
viability, T/C (compound 3.16 µM): 80.5% and 83.7% and 102%
viability, T/C (compound 10 µM): 76% and 62.5% and 43%
IC50 (curve of compound): > 10 µM and 8.11 µM

CC1COCCN1c1cc(C2(O)CC3CCC(C2)O3)c2cnn(-c3ccn[nH]3)c2n1 (configuration not stated)
viability, T/C (compound 0.0316 µM): 38.3% and 52.8% and 44.6%
viability, T/C (compound 0.1 µM): 16.8% and 26.7% and 40.6%
viability, T/C (compound 0.316 µM): 18.2% and 26.2% and 20%
viability, T/C (compound 1 µM): 23.1% and 20.1% and 17.9%
viability, T/C (compound 3.16 µM): 9.3% and 14.8% and 12%
viability, T/C (compound 10 µM): 6.01% and 4.54% and 7.55%
IC50 (curve of compound): < 0.0316 µM
